Columns and labels:
[1] = test system: influenza virus A A/swan/Shimane/499/83(H5N3); format: cell-based, influenza virus A (avian); settings: reacted with virus at room temperature for 3 minutes, diluted with DMEM, MDCK(+) cells, TCID50; (20 ppm)
[2] = test system: atypical (swine) influenza virus (type H1N1); format: cell-based
[3] = test system: Escherichia coli WP2uvrA and Salmonella typhimurium TA series strains (TA100, TA1535, TA98 and TA1537); settings: positive control

| Compound | EtAC dilution at which it is still effective [1] [%] | virus inactivating effect [2] | number of reverse mutant colonies as compared with negative control [3] |
| --- | --- | --- | --- |
| CCCCCCCCCCCCCCCCCC[N+](C)(C)CCC[Si](OCC)(OCC)OCC.[Cl-] [EtAC, octadecyldimethyl(3-triethoxysilylpropyl)ammonium chloride] | 0.002 | highly significant effects are found |  |
| NC(=O)C(=Cc1ccc([N+](=O)[O-])o1)c1ccco1 [2-(2-furyl)-3-(5-nitro-2-furyl)acrylamide] |  |  | remarkable increase |
| Cl.Nc1c2ccccc2nc2ccccc12 [9-Aminoacridine hydrochloride] |  |  | remarkable increase |
| [N-]=[N+]=[N-] [sodium azide] |  |  | remarkable increase |

Reference: patent US9278107B2, “Antibacterial agent composition and antiviral agent composition comprising silicon-containing compound; antibacterializing method, cleaning/mouth rinsing method; method for fixing antibacterial agent and antiviral agent” (Hiroshima University, priority 2008, dated 2016)
